Converted amounts (≈) assume the structure as drawn. Values belong to the molecule of their own block, whether it stands above or below them.
Assays:
Assay in all cases: ≥ marks a high value that may be exact or a test limit, other limits are often not marked, values filed in µg/mL are converted to µM
[1] = tested on: Cronobacter sakazakii DPC 6440
[2] = tested on: Listeria monocytogenes LO28
[3] = tested on: Escherichia coli ATCC 25922
[4] = tested on: Micrococcus luteus
[5] = tested on: Pseudomonas aeruginosa ATCC 15692
[6] = tested on: Saccharomyces cerevisiae
[7] = tested on: Staphylococcus aureus ATCC 25923
[8] = tested on: Bacillus megaterium Bm11
[9] = tested on: Candida albicans ATCC 10231
[10] = tested on: Staphylococcus aureus Cowan 1
[11] = tested on: Staphylococcus capitis 1
[12] = tested on: Yersinia pseudotuberculosis YPIII
[13] = tested on: Botrytis cinerea
[14] = tested on: Escherichia coli ATCC 11775
[15] = tested on: Staphylococcus aureus ATCC 12600
[16] = tested on: Bacillus megaterium KCTC 1096
[17] = tested on: Bacillus subtilis KCTC 1918
[18] = tested on: Escherichia coli KCTC 1682
[19] = tested on: Proteus vulgaris
[20] = tested on: Pseudomonas aeruginosa KCTC 1637
[21] = tested on: Staphylococcus aureus KCTC 1621
[22] = tested on: Acinetobacter baumannii NM8
[23] = tested on: Candida albicans ATCC 90028
[24] = tested on: Escherichia coli ATCC 25726
[25] = tested on: Klebsiella pneumoniae ATCC 700603
[26] = tested on: Pseudomonas aeruginosa ATCC 27853
[27] = tested on: Staphylococcus epidermidis RP62A/1
[28] = tested on: Staphylococcus epidermidis RP62A
[29] = tested on: Stenotrophomonas maltophilia B32/4
[30] = tested on: Clavibacter michiganensis subsp. michiganensis DSM 46294
[31] = tested on: Pectobacterium carotovorum subsp. carotovorum DSM 30168
[32] = tested on: Pseudomonas corrugata DSM 7228
[33] = tested on: Pseudomonas syringae pv. syringae DSM 10604
[34] = tested on: Pseudomonas syringae pv. tomato DC3000
[35] = tested on: Xanthomonas vesicatoria DSM 50861

Structure (SMILES): CC[C@H](C)[C@H](NC(=O)CNC(=O)[C@H](CO)NC(=O)[C@H](CC(C)C)NC(=O)[C@@H](NC(=O)[C@H](CCCN=C(N)N)NC(=O)CNC(=O)[C@H](C)NC(=O)[C@H](CC(C)C)NC(=O)[C@@H]1CCCN1C(=O)[C@H](CC(C)C)NC(=O)[C@@H](N)Cc1ccccc1)C(C)C)C(=O)N[C@@H](CC(C)C)C(N)=O [FLPLAGRVLSGIL]
MIC [8]: 20 µM (≈ 27.1 µg/mL)
MIC [9]: 20 µM (≈ 27.1 µg/mL)
MIC [3]: > 40 µM
MIC [10]: ≥ 40 µM
MIC [11]: ≥ 40 µM
MIC [12]: ≥ 40 µM

Structure (SMILES): CC[C@H](C)[C@H](NC(=O)[C@H](C)N)C(=O)N[C@@H](CC(N)=O)C(=O)N1CCC[C@H]1C(=O)N[C@@H](CCCCN)C(=O)N[C@@H](CO)C(=O)N[C@H](C(=O)N[C@@H](CCC(N)=O)C(=O)N[C@@H](CO)C(=O)N[C@@H](CC(C)C)C(=O)N[C@@H](CC(C)C)C(N)=O)C(C)C [AINPKSVQSLL]
MIC [13]: ≥ 200 µM
MIC [9]: > 200 µM
MIC [14]: ≥ 200 µM
MIC [15]: ≥ 200 µM

Structure (SMILES): CC[C@H](C)[C@H](NC(=O)CNC(=O)[C@H](CO)NC(=O)[C@H](CC(C)C)NC(=O)[C@@H](NC(=O)[C@H](C)NC(=O)CNC(=O)[C@@H](NC(=O)[C@H](CC(C)C)NC(=O)[C@@H]1CCCN1C(=O)[C@H](CC(C)C)NC(=O)[C@@H](N)Cc1ccccc1)[C@@H](C)CC)C(C)C)C(=O)N[C@@H](CC(C)C)C(N)=O [FLPLIGAVLSGIL]
MIC [8]: ≥ 40 µM
MIC [9]: > 40 µM
MIC [3]: > 40 µM
MIC [10]: ≥ 40 µM
MIC [11]: ≥ 40 µM
MIC [12]: ≥ 40 µM

Structure (SMILES): CC[C@H](C)[C@H](NC(=O)[C@@H]1CCCN1C(=O)[C@@H]1CCCN1C(=O)[C@@H](NC(=O)[C@H](Cc1cnc[nH]1)NC(=O)[C@@H](N)C(C)C)C(C)C)C(=O)N[C@H]1CSSC[C@@H](C(=O)N[C@@H](CCCN=C(N)N)C(=O)N[C@@H](CCCCN)C(=O)O)NC(=O)[C@H](CCC(=O)O)NC(=O)[C@H](CCCN=C(N)N)NC(=O)[C@H](Cc2cnc[nH]2)NC(=O)[C@H](CO)NC1=O [VHVPPICSHRECRK]
MIC [13]: ≥ 200 µM
MIC [9]: > 200 µM
MIC [14]: ≥ 200 µM
MIC [15]: ≥ 200 µM

Structure (SMILES): CC[C@H](C)[C@H](N)C(=O)N[C@@H](CC(C)C)C(=O)NCC(=O)N[C@@H](CCCCN)C(=O)N[C@@H](CC(C)C)C(=O)N[C@@H](CC(C)C)C(=O)N[C@@H](CO)C(=O)N[C@H](C(=O)N[C@@H](C)C(=O)N[C@@H](C)C(=O)NCC(=O)N[C@@H](CC(C)C)C(=O)N[C@@H](CC(C)C)C(=O)N[C@@H](CCCCN)C(=O)N[C@@H](CC(N)=O)C(=O)N[C@@H](CC(C)C)C(N)=O)[C@@H](C)O [ILGKLLSTAAGLLKNL]
MIC [22]: ≥ 32 µM
MIC [23]: ≥ 32 µM
MIC [24]: ≥ 32 µM
MIC [25]: 128 µM (≈ 208 µg/mL)
MIC [26]: 128 µM (≈ 208 µg/mL)
MIC [7]: 16 µM (≈ 26 µg/mL)
MIC [27]: 8 µM (≈ 13 µg/mL)
MIC [28]: 16 µM (≈ 26 µg/mL)
MIC [29]: ≥ 64 µM

Structure (SMILES): CC[C@H](C)[C@H](N)C(=O)N[C@@H](CC(C)C)C(=O)NCC(=O)N[C@@H](CCCCN)C(=O)N[C@@H](CC(C)C)C(=O)N[C@@H](CC(C)C)C(=O)N[C@@H](CO)C(=O)N[C@H](C(=O)N[C@@H](C)C(=O)N[C@@H](C)C(=O)NCC(=O)N[C@@H](CC(C)C)C(=O)N[C@@H](CC(C)C)C(=O)N[C@@H](CO)C(=O)N[C@@H](CC(N)=O)C(=O)N[C@@H](CC(C)C)C(N)=O)[C@@H](C)O [ILGKLLSTAAGLLSNL]
MIC [22]: ≥ 64 µM
MIC [23]: ≥ 64 µM
MIC [24]: ≥ 256 µM
MIC [3]: 150 µM (≈ 237 µg/mL)
MIC [25]: 256 µM (≈ 405 µg/mL)
MIC [26]: 256 µM (≈ 405 µg/mL)
MIC [7]: 50 µM (≈ 79.1 µg/mL)
MIC [27]: ≥ 32 µM
MIC [28]: ≥ 64 µM
MIC [29]: ≥ 128 µM

Second part, the molecule after the results:

MIC [1]: ≥ 78.1 µM
MIC [2]: ≥ 78.1 µM
Structure (SMILES): CC[C@H](C)[C@H](NC(=O)[C@H](C)N)C(=O)N[C@@H](CCC(N)=O)C(=O)N1CCC[C@H]1C(=O)N[C@@H](CCCCN)C(=O)N[C@H](C(=O)N[C@@H](CCCCN)C(=O)N[C@H](C(=O)N[C@H](C(=O)N1CCC[C@H]1C(=O)N[C@@H](Cc1ccc(O)cc1)C(=O)N[C@H](C(=O)N[C@@H](CCCN=C(N)N)C(=O)N[C@@H](Cc1ccc(O)cc1)C(=O)N[C@@H](CC(C)C)C(=O)O)C(C)C)[C@@H](C)CC)C(C)C)[C@@H](C)O [AIQPKTKVIPYVRYL]

MIC [3]: 1 µM (≈ 2.81 µg/mL)
MIC [4]: 0.5 µM (≈ 1.41 µg/mL)
MIC [5]: 5.66 µM (≈ 15.9 µg/mL)
MIC [6]: 16 µM (≈ 45 µg/mL)
MIC [7]: 1 µM (≈ 2.81 µg/mL)
Structure (SMILES): CC[C@H](C)[C@H](NC(=O)[C@H](CC(C)C)NC(=O)[C@H](CCCCN)NC(=O)[C@H](CO)NC(=O)[C@H](C)NC(=O)CNC(=O)[C@H](CCCCN)NC(=O)[C@H](CC(C)C)NC(=O)[C@H](C)NC(=O)[C@H](C)NC(=O)[C@H](CCCCN)NC(=O)[C@H](C)NC(=O)[C@H](CC(C)C)NC(=O)[C@H](CC(C)C)NC(=O)CNC(=O)[C@H](Cc1ccccc1)NC(=O)[C@@H](NC(=O)CN)C(C)C)C(=O)N1CCC[C@H]1C(=O)N[C@@H](Cc1cnc[nH]1)C(=O)N[C@@H](CC(C)C)C(=O)N[C@@H](CC(C)C)C(=O)N1CCC[C@H]1C(=O)N[C@@H](CO)C(=O)N[C@@H](CCCN=C(N)N)C(=O)N[C@@H](CCC(N)=O)C(=O)N[C@@H](CCC(N)=O)C(=O)O [GVFGLLAKAALKGASKLIPHLLPSRQQ]

MIC [16]: 0.78 µM (≈ 1.54 µg/mL)
MIC [17]: 0.78 µM (≈ 1.54 µg/mL)
MIC [18]: 3.12 µM (≈ 6.16 µg/mL)
MIC [19]: 12.5 µM (≈ 24.7 µg/mL)
MIC [20]: 1.56 µM (≈ 3.08 µg/mL)
MIC [21]: 3.12 µM (≈ 6.16 µg/mL)
Structure (SMILES): CC[C@H](C)[C@H](NC(=O)[C@H](CCCCN)NC(=O)[C@H](CCCCN)NC(=O)[C@H](Cc1ccccc1)NC(=O)[C@@H](N)Cc1c[nH]c2ccccc12)C(=O)N1CCC[C@H]1C(=O)N[C@@H](CCCCN)C(=O)N[C@@H](Cc1ccccc1)C(=O)N[C@@H](CC(C)C)C(=O)N[C@@H](Cc1cnc[nH]1)C(=O)N[C@@H](CC(C)C)C(=O)N[C@@H](CC(C)C)C(=O)N[C@@H](CCCCN)C(=O)N[C@@H](CCCCN)C(=O)N[C@@H](Cc1ccccc1)C(N)=O [WFKKIPKFLHLLKKF]

MIC [30]: 0.299 µM (≈ 0.5 µg/mL)
MIC [31]: 5.98 µM (≈ 9.99 µg/mL)
MIC [32]: 0.149 µM (≈ 0.25 µg/mL)
MIC [33]: 0.0598 µM (≈ 0.1 µg/mL)
MIC [34]: 5.98 µM (≈ 9.99 µg/mL)
MIC [35]: 0.299 µM (≈ 0.5 µg/mL)
Structure (SMILES): CC(C)C[C@H](NC(=O)[C@H](CCCN=C(N)N)NC(=O)[C@H](CCCCN)NC(=O)[C@H](Cc1ccccc1)NC(=O)[C@H](Cc1ccccc1)NC(=O)[C@H](CCCCN)NC(=O)[C@H](Cc1ccccc1)NC(=O)[C@H](CCCCN)NC(=O)[C@H](CCCCN)NC(=O)[C@H](CCCCN)NC(=O)[C@@H](N)CCCN=C(N)N)C(=O)N[C@@H](Cc1ccccc1)C(N)=O [RKKKFKFFKRLF]
